Residue numbers refer to the chain shown, from its start. Structures can show the parent of a compound that is named as a salt. Where two headings read alike, the source gives them in different places. Marks after values point to notes of the source that are not given here. One block for each molecule: values may come before it.
Assays:
[1] = rat, Tris salt, fasted
[2] = monkey, 5.0 mg/kg po, Tris salt, fasted
human GLP-1R [3] = target: T1, human GLP-1R (Homo sapiens, UniProt P43220); conditions: for SA cAMP – BETP slope: slope of concentration-response curve
T1 sequence (P43220 24-463): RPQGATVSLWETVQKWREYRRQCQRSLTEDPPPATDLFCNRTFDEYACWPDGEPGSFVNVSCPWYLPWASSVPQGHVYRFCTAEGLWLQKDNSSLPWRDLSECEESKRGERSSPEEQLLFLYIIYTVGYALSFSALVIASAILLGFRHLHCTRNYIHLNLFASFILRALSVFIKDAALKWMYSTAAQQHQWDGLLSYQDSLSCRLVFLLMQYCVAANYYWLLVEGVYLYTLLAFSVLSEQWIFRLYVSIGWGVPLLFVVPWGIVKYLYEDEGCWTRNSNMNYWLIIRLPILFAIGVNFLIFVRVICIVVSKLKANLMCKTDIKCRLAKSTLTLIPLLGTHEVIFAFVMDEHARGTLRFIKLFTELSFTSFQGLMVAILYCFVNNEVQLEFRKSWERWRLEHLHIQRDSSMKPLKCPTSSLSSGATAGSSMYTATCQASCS

human GLP-1R [4] = target: T1, human GLP-1R
human GLP-1R [5] = target: T1, human GLP-1R; assay: βArr1 recruitment, DiscoverX PathHunter cell line, buffer with 0.1% BSA; type: cell-based; conditions: buffer containing 0.1% BSA
human GLP-1R [6] = target: T1, human GLP-1R; assay: βArr2 recruitment, DiscoverX PathHunter cell line, buffer with 0.1% BSA; type: cell-based; conditions: for βArr2 slope: buffer containing 0.1% BSA
human GLP-1R [7] = target: T1, human GLP-1R; assay: cAMP assay in candidate selection; conditions: for CS cAMP slope: slope of concentration-response curve
[8] = Intrinsic metabolic clearance in human liver microsomes; type: in vitro ADME; conditions: scaled from in vitro half-life; for CLint scaled: human, liver microsomes, HLM CLint
human GLP-1R [9] = target: T1, human GLP-1R; assay: BETP-sensitized cAMP screening assay; type: cell-based; conditions: for SA cAMP + BETP slope: slope of concentration-response curve
[10] = Intrinsic metabolic clearance in cryopreserved human hepatocytes; type: in vitro ADME
human GLP-1R [11] = target: T1, human GLP-1R; conditions: assay medium
rabbit GLP-1R = target: T2, rabbit GLP-1R (Oryctolagus cuniculus, UniProt G1SGD4); assay: cAMP accumulation, CHO cells expressing rabbit GLP-1R; type: cell-based
T2 sequence (G1SGD4 24-462): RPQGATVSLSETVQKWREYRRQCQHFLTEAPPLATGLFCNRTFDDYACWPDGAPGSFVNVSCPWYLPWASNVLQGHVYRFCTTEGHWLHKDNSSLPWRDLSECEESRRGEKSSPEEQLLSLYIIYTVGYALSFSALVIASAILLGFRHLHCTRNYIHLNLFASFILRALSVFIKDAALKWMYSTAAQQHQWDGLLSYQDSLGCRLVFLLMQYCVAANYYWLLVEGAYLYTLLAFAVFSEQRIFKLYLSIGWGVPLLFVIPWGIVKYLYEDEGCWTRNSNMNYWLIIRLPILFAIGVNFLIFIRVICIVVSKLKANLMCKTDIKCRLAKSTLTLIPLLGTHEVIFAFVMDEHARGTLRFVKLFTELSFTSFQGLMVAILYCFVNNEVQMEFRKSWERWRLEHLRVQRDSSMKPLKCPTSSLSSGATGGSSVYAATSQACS

human GLP-1R [12] = target: T1, human GLP-1R; remark: listed apart in the source
rat GLP-1R = target: T3, rat GLP-1R (Rattus norvegicus, UniProt P32301); assay: cAMP accumulation, CHO cells expressing rat GLP-1R; type: cell-based
T3 sequence (P32301 22-463): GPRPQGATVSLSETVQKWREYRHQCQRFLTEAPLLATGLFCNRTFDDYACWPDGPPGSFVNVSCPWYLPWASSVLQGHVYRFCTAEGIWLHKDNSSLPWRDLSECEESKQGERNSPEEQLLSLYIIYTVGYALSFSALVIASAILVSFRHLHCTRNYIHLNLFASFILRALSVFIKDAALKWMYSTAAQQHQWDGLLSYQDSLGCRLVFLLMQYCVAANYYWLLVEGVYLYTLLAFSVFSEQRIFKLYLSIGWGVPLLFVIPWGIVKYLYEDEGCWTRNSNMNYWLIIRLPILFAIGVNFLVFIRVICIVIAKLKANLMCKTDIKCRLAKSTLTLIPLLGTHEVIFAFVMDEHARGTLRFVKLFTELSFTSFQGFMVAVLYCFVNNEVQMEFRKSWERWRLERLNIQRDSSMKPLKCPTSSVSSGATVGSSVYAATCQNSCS

in vivo [13] = conditions: male, cynomolgus monkey, plasma, iv, 1 mg/kg
GFP-tagged human GLP-1R = GFP-tagged human GLP-1R (Homo sapiens, UniProt P43220); assay: Confocal microscopy of GFP-tagged human GLP-1R in HEK 293 cells; type: cell-based; conditions: stimulation for 30 min; reversible following a 2 h washout
GFP-tagged human GLP-1R, sequence (P43220 24-463): as the sequence (P43220 24-463) above

mouse GLP-1R = target: T4, mouse GLP-1R (Mus musculus, UniProt O35659); assay: cAMP accumulation, CHO cells expressing mouse GLP-1R; type: cell-based
T4 sequence (O35659 22-463): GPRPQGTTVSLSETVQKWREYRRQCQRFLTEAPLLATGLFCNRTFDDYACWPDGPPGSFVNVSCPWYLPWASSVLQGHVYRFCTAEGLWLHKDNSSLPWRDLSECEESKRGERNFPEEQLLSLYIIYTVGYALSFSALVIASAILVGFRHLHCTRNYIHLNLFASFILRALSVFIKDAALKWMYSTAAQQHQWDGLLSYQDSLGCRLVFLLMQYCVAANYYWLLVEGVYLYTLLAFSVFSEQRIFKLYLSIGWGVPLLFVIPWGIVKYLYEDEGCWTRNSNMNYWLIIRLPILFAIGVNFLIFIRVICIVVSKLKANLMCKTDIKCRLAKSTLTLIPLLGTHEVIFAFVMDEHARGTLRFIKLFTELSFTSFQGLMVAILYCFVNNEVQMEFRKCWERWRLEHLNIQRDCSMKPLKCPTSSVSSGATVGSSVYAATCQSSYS

in vivo [14] = conditions: male, Wistar-Han, rat, plasma, iv, 1 mg/kg
[15] = system: healthy adult participants; assay: Phase 1 first-in-human single ascending dose study: safety
cynomolgus monkeys [16] = assay: Cynomolgus monkey food intake; type: in vivo; conditions: 2.9 mg/kg subcutaneous once daily for 2 days
mouse GLP-1R S33W = target: T5, mouse GLP-1R S33W (Mus musculus, UniProt O35659, S33W)
T5 sequence (O35659 22-463 S33W): T4 sequence (O35659 22-463) with S12W

[17] = single oral doses 3–300 mg, fasted
human GLP-1R [18] = target: T1, human GLP-1R; conditions: relative to liraglutide; HEK 293 FAP-GLP1R
cynomolgus monkeys [19] = assay: Intravenous glucose tolerance test; conditions: iv infusion
human GLP-1R W33S = human GLP-1R W33S (Homo sapiens, UniProt P43220, W33S); assay: cAMP, functional assessment of GLP-1R mutants: human W33S
human GLP-1R W33S, sequence (P43220 24-463 W33S): as the sequence (P43220 24-463) above, with W10S counted along it

SMILES: Cn1c(CN2CCC(c3nc(OCc4ccc(Cl)cc4F)ncc3F)CC2)nc2ccccc21 [compound 2]
- CLint scaled [8]: > 150 mL/min/kg
- GLP-1R agonist activity in the unpotentiated cAMP SA (human GLP-1R [3]; without BETP): inactive
- SA cAMP + BETP slope (human GLP-1R [9]): 1.3 ± 0.75
- hHEP CLint [10]: 48 (n = 1) μL/min/million

SMILES: Cn1c(CN2CCC(c3cccc(OCc4ccc(Cl)cc4F)n3)CC2)nc2ccncc21 [compound 3]
- CLint scaled [8]: 130 mL/min/kg
- HLM CLint [8]: 140 ± 46 (n = 3) mL/min/kg
- SA cAMP – BETP slope (human GLP-1R [3]): 1.2 ± 0.26
- βArr2 + BETP slope (human GLP-1R [11]): 0.97 ± 0.10
- fold more potent than HTS hit 2 (human GLP-1R [9]; SA + BETP EC50): > 100 fold
- SA cAMP + BETP slope (human GLP-1R [9]): 0.89 ± 0.17
- hHEP CLint [10]: 55 (n = 1) μL/min/million

SMILES: Cn1c(CN2CCC(c3cccc(OCc4ccc(Cl)cc4F)n3)CC2)nc2nccc(NCC(=O)O)c21 [compound 4]
- CLint scaled [8]: < 11 mL/min/kg
- SA cAMP – BETP slope (human GLP-1R [3]): 0.75 ± 0.18
- βArr2 + BETP slope (human GLP-1R [11]): 0.93 (0.98, 0.88)
- SA cAMP + BETP slope (human GLP-1R [9]): 0.76 ± 0.058

SMILES: Cn1c(CN2CCC(c3cccc(OCc4ccc(Cl)cc4F)n3)CC2)nc2ccc(C(=O)O)nc21 [compound 5]
- CLint scaled [8]: 29 ± 4.4 mL/min/kg
- SA cAMP – BETP slope (human GLP-1R [3]): 1.1 ± 0.17
- βArr2 + BETP slope (human GLP-1R [11]): 0.69 ± 0.13
- SA cAMP + BETP slope (human GLP-1R [9]): 0.97 ± 0.15
- agonist character in CS cAMP assay (human GLP-1R [7]): full agonist
- fold less potent in CS cell line than in SA (human GLP-1R [7]; CS vs SA cAMP EC50): ~20 fold
- CS cAMP slope (human GLP-1R [7]): 1 ± 0.14

The next lines start with results.

- oral F ([1]; 5.0 mg/kg po): 11 (10, 12) %
- oral F ([1]; 100 mg/kg po): 39 (37, 44) %
- oral F [2]: 5.0 (4.0, 6.0) %
SMILES: N#Cc1ccc(COc2cccc(C3CCN(Cc4nc5ccc(C(=O)O)cc5n4C[C@@H]4CCO4)CC3)n2)c(F)c1 [Danuglipron, Tris salt, (S)-2-[(4-{6-[(4-Cyano-2-fluorobenzyl)oxy]pyridin-2-yl}piperidin-1-yl)methyl]-1-(oxetan-2-ylmethyl)-1H-benzo[d]imidazole-6-carboxylic Acid]

- SA cAMP – BETP slope (human GLP-1R [3]): 0.98 ± 0.12
- [3H]PF-06883365 binding slope (human GLP-1R [4]): 1.0 ± 0.15
- βArr1 slope (human GLP-1R [5]): 0.94 ± 0.013
- βArr2 slope (human GLP-1R [6]): 0.79 ± 0.12
- CS cAMP slope (human GLP-1R [7]): 1.1 ± 0.19
SMILES: CCn1cncc1Cn1c(CN2CCC(c3cccc(OCc4ccc(F)cc4F)n3)CC2)nc2ccc(C(=O)O)cc21 [PF-06883365]

- SA cAMP – BETP slope (human GLP-1R [3]): 1.1 ± 0.11
- effect on cAMP levels (rabbit GLP-1R): did not increase cAMP levels
- [125I]GLP-1 binding slope (human GLP-1R [12]): 0.70 ± 0.099
- [3H]PF-06883365 binding slope (human GLP-1R [4]): 1 ^b
- effect on cAMP levels (rat GLP-1R): did not increase cAMP levels
- clearance at 24 h (in vivo [13]): 13.8 mL/min/kg
- half-life (in vivo [13]): 1.9 h
- effect on cAMP levels (mouse GLP-1R): did not increase cAMP levels
- clearance at 24 h (in vivo [14]): 57.3 ± 8.68 mL/min/kg
- half-life (in vivo [14]): 1.1 h
- βArr1 slope (human GLP-1R [5]): 0.90 ± 0.067
- agonist character in βArr2 recruitment (human GLP-1R [6]): partial agonist
- βArr2 slope (human GLP-1R [6]): 1 ± 0.18
- cAMP signaling at mouse GLP-1R S33W (mouse GLP-1R S33W; listed as Danuglipron): restored
- increase of plasma exposure (Cmax, AUCinf) with dose [17]: approximately dose-proportional
- Bias factor (toward cAMP), cAMP vs Internalization (human GLP-1R [18]): 3.6
- cAMP signaling at human GLP-1R W33S (human GLP-1R W33S): failed to induce signaling
- cAMP signaling at human GLP-1R W33S (human GLP-1R W33S; listed as Danuglipron): negated
- agonist character in CS cAMP assay (human GLP-1R [7]): full agonist
- CS cAMP slope (human GLP-1R [7]): 1.1 ± 0.14
SMILES: N#Cc1ccc(COc2cccc(C3CCN(Cc4nc5ccc(C(=O)O)cc5n4C[C@@H]4CCO4)CC3)n2)c(F)c1 [danuglipron, (S)-2-[(4-{6-[(4-Cyano-2-fluorobenzyl)oxy]pyridin-2-yl}piperidin-1-yl)methyl]-1-(oxetan-2-ylmethyl)-1H-benzo[d]imidazole-6-carboxylic Acid]
- intracellular accumulation of GFP-GLP-1R (GFP-tagged human GLP-1R): marked intracellular accumulation of the GFP-GLP-1R
- SA cAMP + BETP slope (human GLP-1R [9]): 0.98 ± 0.029
- post-dose fasting serum glucose levels ([15]; after single doses, healthy participants): remained within the normal reference range
- tolerability after po administration under fasted conditions ([15]; single doses 3 to 300 mg, healthy adults): generally well tolerated
- food intake versus vehicle (cynomolgus monkeys [16]): inhibited food intake
- cAMP signaling at mouse GLP-1R S33W (mouse GLP-1R S33W): increased the level of accumulation of cAMP
- insulin secretion during IVGTT (cynomolgus monkeys [19]): increase in the rate of insulin secretion
- rate of glucose disappearance (K value) during IVGTT (cynomolgus monkeys [19]): increased the rate of glucose disappearance
- insulin secretion during IVGTT (cynomolgus monkeys [19]; listed as Danuglipron): enhanced insulin secretion
